This is an account of results in US20090018150A1, “5-Ht2b Receptor Antagonists” (ASTERAND UK LIMITED, priority 2003, published 2009).

Where a name gives a salt, the structure may show the parent alone.

For experiment [1], the target named is T1, cloned human 5-HT2A receptor (Homo sapiens, UniProt P28223).
T1 construct: purchased Euroscreen; host or cells: CHO-K1
Description: Human 5-HT2A receptor binding assay. The settings on record: [3H]ketanserin (1 nM) displacement, CHO-K1 cell membranes; read-out: 5-HT2A pKi (converted). On the procedure:
(§1) The binding affinity of ligands for human 5-HT2A and 5-HT2C receptors was determined using the following assay.
Membrane preparations from CHO-K1 cells expressing the cloned human 5-HT2A receptor were obtained (Euroscreen). The membranes were thawed rapidly and diluted in assay buffer containing Tris-HCl (50 mM, pH 7.7). The membranes were resuspended by homogenisation, prior to adding 15 μg of membranes to assay wells containing [3H]ketanserin (1 nM), assay buffer (50 mM Tris at pH 7.4) containing pargyline (10 μM), and test compounds (1×10^−10 to 1×10^−4M). Non specific binding was determined in the presence of 100 μM mianserin. After 15 minutes incubation at 37° C., the assay mixture was filtered through a combination of GF-C and GF-B filters, pre-soaked in 0.05% Brij, using a Brandel cell harvester, and were washed three times using ice cold Tris-HCl buffer (50 mM). Radioactivity retained on the filters was determined by liquid scintillation counting. For each test compound, the concentration that inhibited binding of [^3H]ketanserin by 50% was determined using curve fitting software (Prism). Kd values (concentration of ketanserin required to occupy 50% of the receptor binding sites at equilibrium) determined from saturation binding studies were then used to calculate inhibition dissociation constants (Ki) using the following equation: […]

Experiment [2] has as its target T2, cloned human 5-HT2C receptor (Homo sapiens, UniProt P28335).
T2 construct: purchased Euroscreen; host or cells: CHO-K1
T2 sequence (P28335 33-458): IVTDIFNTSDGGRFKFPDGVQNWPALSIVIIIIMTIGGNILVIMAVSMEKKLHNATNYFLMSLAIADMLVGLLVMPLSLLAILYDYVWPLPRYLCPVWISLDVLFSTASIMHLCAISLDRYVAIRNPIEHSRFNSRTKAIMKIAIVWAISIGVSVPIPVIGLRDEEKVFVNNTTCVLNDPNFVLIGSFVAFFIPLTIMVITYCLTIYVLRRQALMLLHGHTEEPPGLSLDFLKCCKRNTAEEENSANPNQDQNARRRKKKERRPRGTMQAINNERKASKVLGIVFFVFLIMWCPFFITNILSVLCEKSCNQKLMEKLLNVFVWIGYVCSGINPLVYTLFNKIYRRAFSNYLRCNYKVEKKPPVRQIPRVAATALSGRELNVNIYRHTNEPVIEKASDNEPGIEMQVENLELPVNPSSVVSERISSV
Nature of the experiment: Human 5-HT2C receptor binding assay. As to conditions: [3H]mesulergine (1 nM) displacement, CHO-K1 cell membranes; read-out: 5-HT2C pKi (converted). As for the experimental part:
as §1
Membrane preparations from CHO-K1 cells expressing the cloned human 5-HT2C receptor were obtained (Euroscreen). The membranes were thawed rapidly and diluted in assay buffer containing Tris-HCl (50 mM, pH 7.7), ascorbic acid (0.1%) and pargyline (10 μM). The membranes were resuspended by homogenisation, prior to adding 6 μg of membranes to assay wells containing [^3H]mesulergine (1 nM), assay buffer (50 mM Tris at pH 7.7 and 0.1% ascorbic acid) containing pargyline (10 μM), and test compounds (1×10^−10 to 1×10^−4M). Non specific binding was determined in the presence of 100 μM mianserin. After 30 minutes incubation at 37° C., the assay mixture was filtered through a combination of GF-C and GF-B filters, pre-soaked in 1% bovine serum albumin, using a Brandel cell harvester, and were washed three times using ice cold Tris-HCl buffer (50 mM). Radioactivity retained on the filters was determined by liquid scintillation counting. For each test compound, the concentration that inhibited binding of [^3H]mesulergine by 50% was determined using curve fitting software (Prism). Kd values (concentration of mesulergine required to occupy 50% of the receptor binding sites at equilibrium) determined from saturation binding studies were then used to calculate inhibition dissociation constants (Ki) using the following equation: […]

The target of experiment [3] is T3, human cloned 5-HT2B receptors (Homo sapiens, UniProt P41595).
T3 construct: expressed in transfected cells; host or cells: CHO-K1
Nature of the experiment: Human cloned 5-HT2B receptor binding assay. As to conditions: [3H]LSD (1 nM) displacement, membranes of CHO-K1 cells expressing cloned 5-HT2B receptor; read-out: 5-HT2B pKi (converted). As for the experimental part:
The binding affinity of the compounds for human cloned 5-HT2B receptors was determined using the following assay.
CHO-K1 cells expressing cloned 5-HT2B receptor were maintained in Ultra-CHO medium containing 400 μg/ml of G418, 100 U/ml penicillin, 100 μg/ml streptomycin, 2.5 μg/ml fungizone and 1-foetal bovine serum, in 95/5% O2/CO2 at 37° C. The cells were harvested using 0.25% trypsin and were centrifuged at 800 rpm for 8 minutes. The cells were homogenised in 50 mM HEPES buffer containing 1 mM disodium EDTA and 1 mM PMSF at pH 7.4, using a Dounce homogeniser (20 strokes). The homogenate was centrifuged at 2280 rpm (1000 g) and 4° C. for 10 minutes, after which the supernatant was removed by decanting. The pellet was re-homogenised as above, and the resulting supernatant removed and combined with that already obtained. The supernatant solution was then centrifuged at 18300 rpm (40000 g) for 10 minutes at 4° C. using a Sorvall centrifuge. The supernatant was removed, and the pellet was re-suspended in 50 mM buffer at pH 7.4 using a Ultra-turrax T25 Polytron, before centrifugation again at 40000 g as above. This wash procedure was repeated, after which the membrane preparation was stored at a concentration of 1 mg/ml at −80° C. until use.
The membranes were thawed rapidly and diluted in assay buffer containing Tris-HCl (50 mM, pH 7.4), ascorbic acid (0.1°) and calcium chloride (4 mM). The membranes were homogenised to resuspend them, prior to adding 10 or 15 μg of membranes to assay wells containing [^3H]LSD (1 nM), assay buffer (50 mM Tris, 4 mM calcium chloride and 0.1° ascorbic acid) containing pargyline (10 μM), and the test compounds (1×10^−10 to 1×10^−4M). Non specific binding was determined in the presence of 100 μM 5-HT. After 30 minutes incubation at 37° C., the assay mixture was filtered through a combination of GF-C and GF-B filters, pre-soaked in 1% polyethyleneimine, using a Brandel cell harvester, and were washed three times using 50 mM Tris-HCl. Radioactivity retained on the filters was determined by liquid scintillation counting. For each test compound, the concentration that inhibited binding of [^3H]LSD by 50% was determined using curve fitting software (Prism). Kd values (concentration of LSD required to occupy 50% of the receptor binding sites at equilibrium) determined from saturation binding studies were then used to calculate inhibition dissociation constants (Ki) using the following equation: […]
This approach follows that set out in Kenakin, T. P. Pharmacologic analysis of drug-receptor interaction. Raven Press, New York, 2nd Edition.

T1 sequence (P28223 whole entry): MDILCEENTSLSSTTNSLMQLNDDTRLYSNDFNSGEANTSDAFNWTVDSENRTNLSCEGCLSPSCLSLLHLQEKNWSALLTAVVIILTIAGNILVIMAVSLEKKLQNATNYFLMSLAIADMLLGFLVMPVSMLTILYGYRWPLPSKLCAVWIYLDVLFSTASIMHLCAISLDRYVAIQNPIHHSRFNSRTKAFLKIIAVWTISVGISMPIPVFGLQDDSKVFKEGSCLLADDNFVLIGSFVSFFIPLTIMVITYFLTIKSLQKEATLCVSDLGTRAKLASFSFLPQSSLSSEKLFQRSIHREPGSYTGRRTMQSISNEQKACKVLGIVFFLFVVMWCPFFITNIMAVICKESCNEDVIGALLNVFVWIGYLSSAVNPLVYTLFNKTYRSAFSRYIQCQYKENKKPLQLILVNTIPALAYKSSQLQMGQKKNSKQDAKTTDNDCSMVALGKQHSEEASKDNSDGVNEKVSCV
T3 sequence (P41595 whole entry): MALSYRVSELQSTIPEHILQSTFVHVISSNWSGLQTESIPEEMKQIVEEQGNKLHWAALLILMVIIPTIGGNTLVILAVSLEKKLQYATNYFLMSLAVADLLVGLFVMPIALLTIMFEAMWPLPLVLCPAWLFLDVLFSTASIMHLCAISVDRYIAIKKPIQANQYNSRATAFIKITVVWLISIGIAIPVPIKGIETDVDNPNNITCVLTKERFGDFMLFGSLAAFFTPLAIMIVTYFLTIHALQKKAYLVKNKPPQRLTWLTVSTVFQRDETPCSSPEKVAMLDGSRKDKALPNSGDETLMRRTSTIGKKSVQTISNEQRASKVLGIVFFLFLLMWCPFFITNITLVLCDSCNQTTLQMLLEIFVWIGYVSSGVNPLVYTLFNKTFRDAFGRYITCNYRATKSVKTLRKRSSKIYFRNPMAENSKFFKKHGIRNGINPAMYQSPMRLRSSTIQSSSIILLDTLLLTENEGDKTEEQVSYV

As to `Cc1[nH]c(N)nc1-c1cccc2ccccc12` [Compound 104I, 5-Methyl-4-naphthalen-1-yl-1H-imidazol-2-ylamine], the figures for the Ki in experiment [1], in experiment [2] and in experiment [3] were greater than 3160 nM, greater than 1000 nM and less than 100 nM, respectively.

On to `Cc1cc(Nc2ccc(C)c(I)c2)nc(N)n1` [Compound 2AK, N^4-(3-iodo-4-methyl-phenyl)-6-methyl-pyrimidine-2,4-diamine trifluoroacetic acid], for which, in experiment [3], the Ki is less than 100 nM.

For `Nc1nc(-c2ccc(-c3ccccc3)cc2)c[nH]1` [Compound 104P, 4-Biphenyl-4-yl-1H-imidazol-2-ylamine], the Ki is greater than 100 nM in experiment [1], greater than 316 nM in experiment [2] and less than 316 nM in experiment [3].

Turning to `Cc1cc(Nc2cccc(F)c2)nc(N)n1` [Compound 2AN, N^4-(3-fluoro-phenyl)-6-methyl-pyrimidine-2,4-diamine], the Ki in experiment [1] is greater than 10000 nM; in experiment [2], greater than 1000 nM; in experiment [3] it was less than 1000 nM.

Take `Cc1cc(Nc2ccc(Cl)c(Cl)c2)nc(N)n1` [Compound 2N, N^4-(3,4-dichloro-phenyl)-6-methyl-pyrimidine-2,4-diamine hydrochloride]: the results for the Ki in experiment [1], in experiment [2] and in experiment [3] were greater than 1000 nM, greater than 1000 nM and less than 1000 nM, respectively.

`Cc1cc(Nc2cc(Br)ccc2Br)nc(N)n1` [Compound 2AJ, N^4-(2,5-dibromo-phenyl)-6-methyl-pyrimidine-2,4-diamine trifluoroacetic acid]: the values for the Ki in experiment [1], in experiment [2] and in experiment [3] were greater than 1000 nM, greater than 316 nM and less than 100 nM, respectively.

As to `COc1ccccc1-c1cccc(Nc2cc(C)nc(N)n2)c1` [Compound 10F, N^4-(2′-methoxy-biphenyl-3-yl)-6-methyl-pyrimidine-2,4-diamine trifluoroacetic acid], the Ki in experiment [1] was greater than 316 nM; in experiment [2] it was greater than 100 nM; in experiment [3], less than 100 nM.

In the case of `Nc1nc(-c2cccc3ccc(Br)cc23)c[nH]1` [Compound 104G, 4-(7-Bromo-naphthalen-1-yl)-1H-imidazol-2-ylamine], the results for the Ki in experiment [1], in experiment [2] and in experiment [3] were greater than 316 nM, greater than 316 nM and less than 100 nM, respectively.

For the compound `Cc1cc(Nc2ccc(I)c(Cl)c2)nc(N)n1` [Compound 2Y, N-(3-chloro-4-iodo-phenyl)-6-methyl-pyrimidine-2,4-diamine hydrochloride], the Ki in experiment [1] was greater than 1000 nM; in experiment [2] it was greater than 1000 nM; in experiment [3], less than 100 nM.

As to `Cc1cc(Nc2ccc(I)cc2)nc(N)n1` [Compound 2E, N^4-(4-iodo-phenyl)-6-methyl-pyrimidine-2,4-diamine hydrochloride], the Ki was greater than 10000 nM in experiment [1], greater than 316 nM in experiment [2] and less than 1000 nM in experiment [3].

For the compound `Cc1cc(Nc2cccc(-c3cccc(O)c3)c2)nc(N)n1` [Compound 10G, 3′-(2-amino-6-methyl-pyrimidin-4-ylamino)-biphenyl-3-ol trifluoroacetic acid], the Ki in experiment [3] was less than 100 nM.

In the case of `Nc1nc(-c2cccc3c(Br)cccc23)c[nH]1` [Compound 104H, 4-(5-Bromo-naphthalen-1-yl)-1H-imidazol-2-ylamine], the results for the Ki in experiment [1], in experiment [2] and in experiment [3] were greater than 316 nM, greater than 100 nM and less than 100 nM, respectively.

Consider `Cc1cc(Nc2cccc(Br)c2C)nc(N)n1` [Compound 2T, N^4-(3-bromo-2-methyl-phenyl)-6-methyl-pyrimidine-2,4-diamine hydrochloride], for which the results for the Ki in experiment [1], in experiment [2] and in experiment [3] were greater than 1000 nM, greater than 1000 nM and less than 1000 nM, respectively.

Consider `CCOc1ccc2ccccc2c1-c1c[nH]c(N)n1` [Compound 104A, 4-(2-Ethoxy-naphthalen-1-yl)-1H-imidazol-2-ylamine], for which the Ki in experiment [1] was greater than 1000 nM; in experiment [2] it was greater than 100 nM; in experiment [3], less than 1000 nM.

As to `Cc1cc(Nc2cccc(-c3ccc(N(C)C)cc3)c2)nc(N)n1` [Compound 10H, N^4-(4′-dimethylamino-biphenyl-3-yl)-6-methyl-pyrimidine-2,4-diamine bis trifluoroacetic acid], the Ki is greater than 316 nM in experiment [1], greater than 316 nM in experiment [2] and less than 100 nM in experiment [3].

In the case of `Cc1cc(Nc2cccc(C(F)(F)F)c2)nc(N)n1` [Compound 2H, 6-Methyl-N^4-(3-trifluoromethyl-phenyl)-pyrimidine-2,4-diamine, hydrochloride], the Ki is greater than 10000 nM in experiment [1], greater than 1000 nM in experiment [2] and less than 1000 nM in experiment [3].

`Cc1cc(Nc2cccc3c2CCC3)nc(N)n1` [Compound 2R, N^4-indan-4-yl-6-methyl-pyrimidine-2,4-diamine hydrochloride]: the Ki in experiment [1] was greater than 1000 nM; in experiment [2] it was greater than 1000 nM; in experiment [3], less than 1000 nM.

For `CC(=O)Nc1nc(-c2cccc3ccc(Br)cc23)c[nH]1` [Compound 103G, N-[4-(7-Bromo-naphthalen-1-yl)-1H-imidazol-2-yl]-acetamide], the Ki in experiment [1] is greater than 1000 nM; in experiment [2], greater than 1000 nM; in experiment [3], less than 100 nM.

Take `Cc1cccc(-c2cccc(-c3nc(N)oc3C)c2)c1` [Compound 218B, 5-Methyl-4-(3′-methyl-biphenyl-3-yl)-oxazol-2-ylamine, trifluoroacetic acid]: the Ki in experiment [3] was less than 1000 nM.

`CC(=O)Nc1nc(-c2cccc(-c3ccccc3)c2)c[nH]1` [Compound 107, N-(4-biphenyl-3-yl-1H-imidazol-2-yl)-acetamide]: the Ki in experiment [3] was less than 1000 nM.

Consider `CC(C)c1cccc(-c2cccc(-c3cnc(N)o3)c2)c1` [Compound 209M, 5-(3′-Isopropyl-biphenyl-3-yl)-oxazol-2-ylamine, trifluoroacetic acid], for which the Ki in experiment [3] was less than 1000 nM.
